From patent publication US20210108247A1, “CHEMOENZYMATIC SYNTHESIS OF TREHALOSE ANALOGUES” (Central Michigan University, priority 2014, published 2021) come the findings set out here.

What all share (assay type): cell-based
Assay [1] concerns M. smegmatis wild type. Nature of the assay: Uptake of fluoro trehalose, GC-MS of cytosolic extracts. Particulars: 100 μM, 1 h, 37° C. The method, then: Cultures of M. smegmatis wild type, ΔsugC mutant, or ΔsugC::sugC complement were generated by inoculating a single colony from a freshly streaked agar plate (with appropriate antibiotic, if needed) into 3 mL Middlebrook 7H9 liquid medium supplemented with ADC (albumin, dextrose, and catalase), 0.5% glycerol, and 0.05% Tween-80 in a culture tube. Starter cultures were incubated at 37° C. with shaking until reaching log phase. Cells were then cultured at 37° C. in the presence or absence of 2-, 3-, 4-, or 6-fluoro trehalose (100 μM) in 7H9 liquid medium for 1 h, then centrifuged and washed (5000 rpm for 5 min) three times in ultrapure water. The washed cells were resuspended in ultrapure water and boiled for 4 h, then centrifuged. The supernatant was collected and dried on a speedvac to yield water-soluble cytosolic metabolites (e.g., trehalose and fluoro trehaloses, if present), which were subsequently trimethylsilyl (TMS)-derivatized using N-Methyl-N-(trimethylsilyl) trifluoroacetamide (MSTFA) in pyridine and analyzed by gas chromatography-mass spectrometry (GC-MS).

The subject of assay [2] is M. smegmatis wild type. Nature of the assay: One-pot metabolic labeling and fluorescence imaging (CuAAC with alkyne fluorophore). The conditions noted are these: +TreT reaction mixture, 25 μM azido sugar, 4 h, 37° C.
Assay [3] concerns M. smegmatis ΔsugC mutant. Described as above. The conditions noted are these: ΔsugC mutant missing the trehalose transporter; 25 μM, 4 h. The method, then: One-Pot Metabolic Labeling and Imaging of M. smegmatis: Cultures of M. smegmatis wild type, ΔsugC mutant, or ΔsugC::sugC complement were generated by inoculating a single colony from a freshly streaked agar plate (with appropriate antibiotic, if needed) into 3 mL Middlebrook 7H9 liquid medium supplemented with ADC (albumin, dextrose, and catalase), 0.5% glycerol, and 0.05% Tween-80 in a culture tube. Starter cultures were incubated at 37° C. with shaking until reaching log phase. Meanwhile, using the procedure described above, a 50 μL TreT reaction employing 6-GlcAz (10 mM) as the substrate was carried out to synthesize 6-TreAz (+TreT sample). A control reaction lacking TreT was run in parallel (−TreT control). […] Given the observed quantitative conversion for this reaction (FIG. 1B, Entry 16), a 6-TreAz concentration of 10 mM was assumed in the +TreT sample. […] Fluorescence imaging was performed using a GFP LED light cube (maximum excitation/emission=470/510 nm). […]
The same experiments were performed in M. smegmatis ΔsugC, a mutant missing the trehalose transporter required for 6-TreAz uptake and labeling, as well as its complement, M. smegmatis ΔsugC::sugC. Fluorescence was abolished in the ΔsugC mutant and restored in the complement, confirming that 6-TreAz labeling proceeded via the trehalose transporter pathway.

In assay [4] the test system is M. smegmatis ΔsugC::sugC complement. Described as above. Particulars: 25 μM, 4 h. The method, then:
One-Pot Metabolic Labeling and Imaging of M. smegmatis: Cultures of M. smegmatis wild type, ΔsugC mutant, or ΔsugC::sugC complement were generated by inoculating a single colony from a freshly streaked agar plate (with appropriate antibiotic, if needed) into 3 mL Middlebrook 7H9 liquid medium supplemented with ADC (albumin, dextrose, and catalase), 0.5% glycerol, and 0.05% Tween-80 in a culture tube. Starter cultures were incubated at 37° C. with shaking until reaching log phase. Meanwhile, using the procedure described above, a 50 μL TreT reaction employing 6-GlcAz (10 mM) as the substrate was carried out to synthesize 6-TreAz (+TreT sample). A control reaction lacking TreT was run in parallel (−TreT control). After incubation at 70° C. for 1 h, the reactions were stopped by placing on ice. Given the observed quantitative conversion for this reaction (FIG. 1B, Entry 16), a 6-TreAz concentration of 10 mM was assumed in the +TreT sample. For the −TreT control, a 6-GcAz concentration of 10 mM was assumed. The aqueous reaction mixtures were directly diluted into M. smegmatis wild type, ΔsugC mutant, or ΔsugC::sugC complement growing in 7H9 liquid medium to a final azido sugar concentration of 25 μM and a culture density of OD600=0.15. […] Fluorescence imaging was performed using a GFP LED light cube (maximum excitation/emission=470/510 nm). […]

`OC[C@H]1O[C@H](O[C@H]2O[C@H](CO)[C@@H](O)[C@H](O)[C@H]2F)[C@H](O)[C@@H](O)[C@@H]1O` [2-fluoro trehalose, 2-Deoxy-2-fluoro-α,α-D-trehalose]: the “fluoro trehalose derivative in cytosolic extracts (uptake)” value (“fluoro trehalose derivative” below) in assay [1] is given as “observed in cytosolic extracts”.

For `OC[C@H]1O[C@H](O[C@H]2O[C@H](CO)[C@@H](O)[C@H](F)[C@H]2O)[C@H](O)[C@@H](O)[C@@H]1O` [3-fluoro trehalose, 3-Deoxy-3-fluoro-α,α-D-trehalose], the “fluoro trehalose derivative” value in assay [1] is listed as “observed in cytosolic extracts”.

Take `[N-]=[N+]=NC[C@H]1O[C@H](O[C@H]2O[C@H](CO)[C@@H](O)[C@H](O)[C@H]2O)[C@H](O)[C@@H](O)[C@@H]1O` [6-TreAz, 6-Azido-6-Deoxy-α,α-D-trehalose]: the “fluorescence labeling of bacteria (fluorescence microscopy)” value is given as “strong labeling” in assay [2], “abolished” in assay [3] and “restored” in assay [4].

Turning to `OC[C@H]1O[C@H](O[C@H]2O[C@H](CF)[C@@H](O)[C@H](O)[C@H]2O)[C@H](O)[C@@H](O)[C@@H]1O` [6-fluoro trehalose], in assay [1], the “fluoro trehalose derivative” value was “observed in cytosolic extracts”.
